According to patent US12544364B2, “Use of a phosphodiesterase 10 inhibitor for the treatment of tourette syndrome” (Noema Pharma AG, priority 2020, dated 2026):

Key:
Assay type in all cases: physicochemical
[1] = Thermodynamic stability of the crystalline form; settings: at least between 20° C. and 60° C.
Excerpt: The XRPD pattern can be obtained by following protocols known in the field.

[2] = Stability in suspension vehicle and parenteral formulation; settings: 0.5% HPC/1% Tween 80, up to 5 weeks at RT
Protocol: For parenteral administration, a 30% Kleptose formulation (1.5 mg/ml, physiologic osmolality, pH 6.2), with a stability of at least 4 weeks at 40° C. was developed.

[3] = Preliminary forced degradation study (acidic, basic, oxidative, photolytic stress) and excipient compatibility
Protocol: (§1) Stability: Preliminary forced degradation study of the crystalline form of the free base of the compound of Formula I in acidic, basic, oxidative, and photolytic stress conditions was conducted to investigate the viability of the crystalline form in various stress conditions. Since the solubility of the compound of Formula I was low in the standard solvent ethanol, ethanol was replaced by N-methyl-2-pyrrolidone (NMP).
The crystalline form of the free base of the compound of Formula I was stable for up to 8 days in solid state at 80° C. and in solution at pH 3 to pH 7 at RT. […] The crystalline form was stable after exposure to light in solid state.

[4] = Preliminary solid state stability, UPLC analysis after storage
Protocol: as §1
A defined amount of the crystalline form of the free base of the compound of Formula I (0.2-0.8 mg) was weighed into a 1.8 mL HPLC vial and stored open (75% RH) or closed (ambient) at the temperature and the time indicated. After incubation, compound was dissolved in 1-1.5 mL NMP to a final concentration of 0.2-0.5 mg/mL and submitted to UPLC analysis (254 nm).

[5] = Solubility of the crystalline form in aqueous media, simulated fluids and organic solvents; settings: in the presence of surfactants (e.g., Tween-80, sodium dodecyl sulfate, dioctyl sulfosuccinate, Pluronic F68) and cyclodextrins
Protocol: Solubility in simulated gastric fluid (SGF), fasted state simulated intestinal fluid (FaSSIF), and fed state simulated intestinal fluid (FeSSIF) was 0.019 mg/ml, 0.006 mg/mL, and 0.022 mg/mL, respectively. Solubility increased 50-100-fold in the presence of surfactants (e.g., Tween-80, sodium dodecyl sulfate, dioctyl sulfosuccinate, or Pluronic F68) and cyclodextrins; however it was still rather low.

- Thermodynamic stability [1]: thermodynamically stable
- Stability in suspension vehicle [2]: stable
- Excipient compatibility (CompaS assay) [3]: compatible with almost all excipients
- Stability towards oxidation ([3]; 1 day): stable
- Stability towards daylight ([3]; in solution): stable
- Stability in solution ([3]; in solution at pH 3 to pH 7 at RT, up to 8 days): stable
- Stability in solution at higher or lower pH ([3]; in solution, pH higher than 7 or lower than 3): degradation was observed
- Stability in the Suntest ([3]; in solution, time dependent): moderately stable to unstable
- Stability towards oxidation ([3]; prolonged exposure): some sensitivity
- Stability after exposure to light ([3]; solid state): stable
- Stability in solid state ([3]; solid state at 80° C., up to 8 days): stable
- Degradation products ([4]; solid state at various temperatures): < 0.5%
- UPLC analysis (Area % main peak) ([4]; solid state, 4 w, 4° C.): 100 Area %
- UPLC analysis (Area % main peak) ([4]; solid state, 4 w, 40° C.): 100 Area %
- UPLC analysis (Area % main peak) ([4]; solid state, 4 w, 40° C., 75% RH): 100 Area %
- UPLC analysis (Area % main peak) ([4]; solid state, 4 w, 60° C.): 100 Area %
- UPLC analysis (Area % main peak) ([4]; solid state, 4 w, RT): 100 Area %
- Time stable in solid state ([4]; solid state, 40-60° C.): at least 4 weeks
- UPLC analysis (Area % main peak) ([4]; solid state, 1 h, 80° C.): 100 Area %
- UPLC analysis (Area % main peak) ([4]; solid state, 1 d, 80° C.): 100 Area %
- UPLC analysis (Area % main peak) ([4]; solid state, 8 d, 80° C.): 100 Area %
- Solubility increase [5]: 50-100 fold
SMILES: Cn1ncc(C(=O)N2CCOCC2)c1C(=O)Nc1ccn2nc(-c3ccccc3)nc2c1 [1-methyl-4-(morpholine-4-carbonyl)-N-(2-phenyl[1,2,4]triazolo[1,5-a]pyridin-7-yl)-1H-pyrazole-5-carboxamide]
- Particle growth and hydrate formation in suspension vehicle [2]: only minor particle growth and no hydrate formation
